Source: patent US20090270342A1, “IMMUNOREGULATORY AGENT” (priority 2006, published 2009)

Tests used:
[1] = tested on: cedar- and Japanese cypress-pollen disease; experiment: Clinical symptom scores in cedar- and Japanese cypress-pollen allergy, double blind test (Experiment 8); type: in vivo, human
Description: In Experiments 4 to 7, it was confirmed that the production of IgE and cytokines, which involves in allergic symptoms, is suppressed by ingesting lactosucrose. Based on the results, an experiment for investigating the suppressing effect of lactosucrose on the clinical symptoms caused by ceder- and Japanese cypress-pollen was carried out as follows. Volunteers who had been self-diagnosed to have allergic symptoms of nose or eyes at a season of cedar- and Japanese cypress-pollen (February to May) in the past two to three years, were recruited as subjects. An interview about the clinical symptoms of nose and eyes for the past two to three years was carried out to the applied volunteers with referencing a guideline for the diagnosis of pollinosis, “HANA ALLERGY SHINDAN GUIDELINE—TUNENSEI BIEN TO KAFUNSHO—2005 NENDO-BAN (Guideline for the diagnosis of nose allergy—chronic allergic rhinitis and pollinosis 2005 edition)”, edited by the committee for the guideline for the diagnosis of nose allergy, published by Life Science pp. 20-24 (2006). Based on the results, 40 persons estimated to be cedar- and Japanese cypress-pollen disease were selected as subjects. The subjects were divided into two groups, a test group ingesting lactosucrose (ingesting 3 g of lactosucrose every day) and a control group ingesting placebo, regarding with a score of clinical symptoms of the subjects. Then, “NYU-KA OLIGO 700”, a 76% (w/w)-solid content syrup, comprising lactosucrose, commercialized by Hayashibara Shoji Inc., Okayama, Japan, which comprises 71.5% (w/w) of lactosucrose, 13.7% (w/w) of sucrose, 7.5% (w/w) of lactose, and 7.3% (w/w) of other saccharides, on a dry solid basis, was repackaged into aluminum pillowcases with about 6 g/package (3 g of lactosucrose/package) and the resulting packages were distributed to the subjects of the lactosucrose-ingesting group. In the same manner, “CORN SUGAR A-33”, an about 75% (w/w)-solid content isomerized sugar syrup comprising sucrose, commercialized by Sanwa Cornstarch Co., Ltd., Nara, Japan, which comprises 33.5% (w/w) of sucrose, 33.7% (w/w) of glucose, and 29.2% (w/w) of fructose, on a dry solid basis, was repackaged into packages with about 6 g/package similarly as in the above and distributed to the subjects of the placebo-ingesting group. The ingestion was started at Jan. 16, 2007 (zero week), before the beginning of cedar-pollen season, and then subjects were allowed to ingest one package of the test substance at any time every day for 18 weeks. The methods for ingesting the test substance were not restricted and the subjects were permitted to ingest directly from the package or after mixing with other foods and beverages. The experiment was carried out with double blind test and the subjects were not restricted except for ingesting the test substance and were allowed to take medicines including an anti-allergic agent. For evaluating the suppression of allergic symptoms by ingesting the test substance, questionnaire survey was carried out to subjects about clinical symptoms of nose and eyes and difficulties on daily life once per week for 21 weeks, from one week before from starting the ingestion of the test substance to two weeks after of the end of the ingestion. The first questionnaire survey was carried out […]. Based on the respective result of the questionnaire of the group ingesting lactosucrose and the control group, the effects were evaluated by scores determined with regarding the suppressive effect on allergic symptoms of medicines such as an anti-allergic agent used during the test period. […] 9, 2007; the beginning of March; and the end of March; respectively, in the test area, the southern part of Okayama Prefecture. […] 27, 2007; and the end of April in the test area. Accordingly, the ingestion of the test substance in the experiment was started about three weeks before the cedar pollen season. […]

IgA in feces = experiment: Amount of IgA in feces of mice ingesting lactosucrose diet (Experiment 1); type: in vivo; settings: Lactosucrose 5% (w/w) diet
Description: An experiment for investigating the effect of lactosucrose ingestion on the enhancement of gut immunity was carried out by measuring the amount of IgA in feces of mice. Female BALB/c mice (six weeks old) were preliminary reared for one week on “AIN-93G”, containing 40% (w/w) of corn starch, 20% (w/w) of casein, 13.2% (w/w) of α-corn starch, 10% (w/w) of sucrose, 7% (w/w) of soybean oil, 5% (w/w) of cellulose, 3.5% (w/w) of mineral mixture, 1% (w/w) of vitamin mixture, 0.3% (w/w) of L-cystine, and 0.0014% (w/w) of hydroquinone, which is a standard purified diet for researching the nutrition of mice and rats published by American National Institute of Nutrition in 1993. Successively, “LS-90P”, a saccharide composition comprising 91.8% (w/w), onadrysolid basis, of lactosucrose commercialized by ENSUIKO Sugar Refining Co., Ltd., Tokyo, Japan, was incorporated into the above purified diet, in which corn starch equal to the amount of the saccharide composition comprising lactosucrose had been removed, to give a lactosucrose content of 5% (w/w), and five mice/group were allowed to ingest the resulting test diet freely. Mice, allowed to ingest “AIN-93G”, as the standard purified diet, were used as control. Then, fresh feces were collected from the mice at one week, two weeks, three weeks, and four weeks after starting the administration of the test diet and the control diet, and the amount of IgA in the feces was measured by ELISA using anti-IgA antibody (Mouse IgA ELISA Quantitation Kit produced by Bethyl Laboratories, Inc., Texas, USA). The amount of IgA was expressed by mg/g-wet feces and the average value of those from five mice was determined. The percentages in parentheses in Table 1 mean relative values to those of the control at respective weeks.

[2] = 3 g of lactosucrose every day, after the start of ingesting the test substance

## OC[C@H]1O[C@@H](O[C@H]2[C@H](O)[C@@H](O)[C@@H](O[C@]3(CO)O[C@H](CO)[C@@H](O)[C@@H]3O)O[C@@H]2CO)[C@H](O)[C@@H](O)[C@H]1O [Lactosucrose, β-D-galactosyl-(1,4)-α-D-glucosyl-(1,2)-β-D-fructoside]
[1]; 3 g of lactosucrose every day (NYU-KA OLIGO 700), 18 weeks, human pollinosis subjects
  Generation of clinical symptoms and difficulties on daily life in comparison with the control group: delayed by one week
[1]; 3 g of lactosucrose every day, 18 weeks, FIG. 1
  Score of clinical symptoms of nose compared with the control group: kept lower value than those of the control group during four to 10 weeks
[1]; 3 g of lactosucrose every day, 18 weeks, FIG. 2
  Score of clinical symptoms of eyes compared with the control group: lower than those of the control group though the test period
[1]; 3 g of lactosucrose every day, 18 weeks, FIG. 3
  Score of difficulties on daily life compared with the control group: lower than those of the control group though the test period
[1]; [2]
  Time at which the score of clinical symptoms of eyes reached a peak: eight weeks
  Time at which the score of clinical symptoms of nose reached a peak: seven weeks
  Time at which the score of difficulties on daily life reached a peak: seven weeks
IgA in feces; 1 week after
  Amount of IgA in feces, relative value to control: (232%)
IgA in feces; 1 week after (8 weeks old)
  Amount of IgA in feces: 13 ± 2.6 mg/g
IgA in feces; 2 weeks after
  Amount of IgA in feces, relative value to control: (285%)
IgA in feces; 2 weeks after (9 weeks old)
  Amount of IgA in feces: 5.7 ± 2.3 mg/g
IgA in feces; 3 weeks after
  Amount of IgA in feces, relative value to control: (543%)
IgA in feces; 3 weeks after (10 weeks old)
  Amount of IgA in feces: 7.6 ± 1.4 mg/g
IgA in feces; 4 weeks after
  Amount of IgA in feces, relative value to control: (755%)
IgA in feces; 4 weeks after (11 weeks old)
  Amount of IgA in feces: 8.3 ± 1.9 mg/g
